The values that follow come from publication PMC10820264, “Combining Experimental and Computational Methods to Produce Conjugates of Anticholinesterase and Antioxidant Pharmacophores with Linker Chemistries Affecting Biological Activities Related to Treatment of Alzheimer’s Disease” (Molecules, 2024).

Assay [1] deals with equine serum BChE (Equus caballus, UniProt P81908). Kind of assay: biochemical. Type of assay: biochemical. The procedure: (§1) Human erythrocyte AChE and equine serum BChE were purchased from Milamed (Perm, Russia). Porcine liver CES, substrates, and reference compounds were from Sigma-Aldrich (St. Louis, MO, USA). The activity of enzymes was measured spectrophotometrically, as described in detail in [72] using ATCh iodide, BTCh iodide, and 4-NPA as substrates for AChE, BChE, and CES, respectively. Experimental conditions: K,Na—phosphate buffer (100 mM), 25 °C, pH 7.5 for AChE and BChE and pH 8.0 for CES assay. Measurements were carried out on a FLUOStar Optima microplate reader (BMG Labtech, Ortenberg, Germany).
equine serum BChE, sequence (P81908 whole entry): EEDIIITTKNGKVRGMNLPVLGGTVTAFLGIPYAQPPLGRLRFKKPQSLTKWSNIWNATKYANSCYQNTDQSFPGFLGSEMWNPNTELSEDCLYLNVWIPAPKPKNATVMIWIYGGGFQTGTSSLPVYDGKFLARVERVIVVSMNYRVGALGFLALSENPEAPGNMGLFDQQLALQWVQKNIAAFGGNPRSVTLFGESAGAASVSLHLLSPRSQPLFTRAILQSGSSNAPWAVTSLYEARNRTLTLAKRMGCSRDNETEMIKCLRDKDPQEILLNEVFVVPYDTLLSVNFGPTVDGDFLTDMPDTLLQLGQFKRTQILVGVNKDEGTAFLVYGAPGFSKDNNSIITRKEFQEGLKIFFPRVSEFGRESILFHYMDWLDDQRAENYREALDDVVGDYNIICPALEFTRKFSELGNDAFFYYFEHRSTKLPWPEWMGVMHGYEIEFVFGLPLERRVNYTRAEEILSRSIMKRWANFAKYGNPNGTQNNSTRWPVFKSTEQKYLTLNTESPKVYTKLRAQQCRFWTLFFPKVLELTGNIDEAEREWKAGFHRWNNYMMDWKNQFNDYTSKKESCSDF
(§2) Test compounds were dissolved in DMSO; the final concentration of solvent in the incubation mixture was 2% (v/v).

Assay [2] addresses Human erythrocyte AChE (Homo sapiens, UniProt P22303). Kind of assay: biochemical. The conditions noted are these: for AChE activity relative to tacrine (times more active): vs tacrine. The class given is biochemical. On the procedure:
as §1, §2

A short description of assay [3]: ABTS radical cation scavenging assay. As to conditions: for time to reach the activity level of Trolox in ABTS radical scavenging: compound at 20 μM (IC50 of Trolox); for ABTS•+-Scavenging Activity TEAC: Trolox equivalents.
Assay [4] concerns free radicals in mouse brain homogenate (TBHP-initiated). The class given is biochemical. As to conditions: read-out: Radical Scavenging Capacity, Luminol Chemiluminescence Assay IC50.
The target of assay [5] is Aβ42 (Homo sapiens, UniProt P05067). Kind of assay: Inhibition of Aβ42 self-aggregation, thioflavin T fluorescence. The class given is biochemical. As to conditions: Aβ42 50 µM, compound 100 µM; for inhibition at 100 µM: read-out: Inhibition of Aβ42 Self-Aggregation.
Aβ42, sequence (P05067 672-713): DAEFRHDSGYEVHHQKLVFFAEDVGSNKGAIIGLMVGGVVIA
For assay [6], the system named is Porcine liver CES. Kind of assay: CES inhibition, spectrophotometric, 4-NPA substrate. The class given is biochemical. The procedure: as §1
Test compounds were dissolved in DMSO; the final concentration of solvent in the incubation mixture was 2% (v/v). […]

The nature of assay [7]: Ferric-reducing antioxidant power (FRAP) assay. The conditions noted are these: Trolox equivalents.
Assay [8] deals with peripheral anionic site of Electrophorus electricus AChE (EeAChE) (Electrophorus electricus, UniProt O42275). Type of assay: binding.
peripheral anionic site of Electrophorus electricus AChE (EeAChE), sequence (O42275 24-633): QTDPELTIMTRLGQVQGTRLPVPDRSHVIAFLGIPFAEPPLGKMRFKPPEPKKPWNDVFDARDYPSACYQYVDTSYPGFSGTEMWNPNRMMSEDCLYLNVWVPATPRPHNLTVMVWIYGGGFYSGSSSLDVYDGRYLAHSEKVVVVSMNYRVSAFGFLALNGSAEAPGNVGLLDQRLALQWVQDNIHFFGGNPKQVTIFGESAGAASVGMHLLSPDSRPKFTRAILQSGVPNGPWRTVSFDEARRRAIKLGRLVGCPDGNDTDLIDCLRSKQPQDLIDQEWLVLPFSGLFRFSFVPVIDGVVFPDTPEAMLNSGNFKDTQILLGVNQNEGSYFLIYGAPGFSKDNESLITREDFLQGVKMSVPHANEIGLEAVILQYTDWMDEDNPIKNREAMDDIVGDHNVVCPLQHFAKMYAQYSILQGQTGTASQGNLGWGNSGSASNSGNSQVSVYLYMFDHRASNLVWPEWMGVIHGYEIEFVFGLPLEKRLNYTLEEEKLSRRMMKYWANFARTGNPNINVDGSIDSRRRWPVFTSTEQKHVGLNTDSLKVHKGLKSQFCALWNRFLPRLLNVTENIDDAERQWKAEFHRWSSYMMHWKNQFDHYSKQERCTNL
Assay [9] deals with spontaneous lipid peroxidation in mouse brain homogenate. Type of assay: biochemical.
[10] abbreviates: read-out: Inhibition of Spontaneous Lipid Peroxidation in Mouse Brain Homogenate, TBARS Assay IC50.

Like-named read-outs stand apart in the source and are kept apart here.

The IC50 is the point on the concentration scale where inhibition reaches its midpoint. One may read the inhibition as how much of the control response was suppressed.
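Throughout, for Propidium Displacement: compounds tested at 20 µM.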

Human erythrocyte AChE, sequence (P22303 other isoform, or with tags, fused parts or gaps): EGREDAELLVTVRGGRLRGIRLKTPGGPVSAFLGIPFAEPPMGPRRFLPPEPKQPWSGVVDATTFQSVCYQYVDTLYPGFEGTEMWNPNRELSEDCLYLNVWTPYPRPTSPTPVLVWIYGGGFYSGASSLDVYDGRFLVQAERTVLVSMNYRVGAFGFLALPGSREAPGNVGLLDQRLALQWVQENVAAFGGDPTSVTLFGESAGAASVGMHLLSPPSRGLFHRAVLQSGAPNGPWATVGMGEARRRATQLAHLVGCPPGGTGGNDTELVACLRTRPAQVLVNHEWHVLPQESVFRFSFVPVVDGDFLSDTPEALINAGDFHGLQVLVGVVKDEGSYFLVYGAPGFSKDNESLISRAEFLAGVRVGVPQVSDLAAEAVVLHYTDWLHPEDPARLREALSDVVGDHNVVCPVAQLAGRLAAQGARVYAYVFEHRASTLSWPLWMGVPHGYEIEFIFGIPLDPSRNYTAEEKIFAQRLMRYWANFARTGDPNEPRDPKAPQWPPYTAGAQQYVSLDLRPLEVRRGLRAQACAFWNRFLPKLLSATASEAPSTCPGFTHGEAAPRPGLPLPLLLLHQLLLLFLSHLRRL

Turning to `CC(C)(C)c1cc(CNCCCCCCCCNc2c3c(nc4ccccc24)CCCC3)cc(C(C)(C)C)c1O` [17d, 2,6-Di-tert-butyl-4-{[8-(1,2,3,4-tetrahydro-acridin-9-ylamino)-octylamino]-methyl}-phenol], the half-maximal inhibitory concentration (IC50) turned out to be 0.00756 ± 0.00042 µM in assay [1], 0.0151 ± 0.002 µM in [2], 15.2 ± 0.7 µM in [3] and 11.3 ± 1.5 µM in [4]. Also, in assay [2], the “AChE activity relative to tacrine (times more active)” value is on record as ~ 40 times. Moreover, the “time to reach the activity level of Trolox in ABTS radical scavenging” value in assay [3] is recorded as “less than 1 min”. In addition, the inhibition at 100 µM in [5] is 71.4 ± 4.9%. The “CES % inhibition at 20 μM” value in [6] is reported as 23.6 ± 2.1%. The “Ferric-Reducing Antioxidant Power TE” value in [7] worked out at 0.57 ± 0.01. Besides, in assay [8], the “Propidium Displacement” value was 13.4 ± 1.2%.
For `CC(C)(C)c1cc(C=NCCCCCCCCNc2c3c(nc4ccccc24)CCC3)cc(C(C)(C)C)c1O` [13d, 2,6-Di-tert-butyl-4-{[8-(2,3-dihydro-1H-cyclopenta[b]quinolin-9-ylamino)-octylimino]-methyl}-phenol], the half-inhibitory concentration (IC50) was 0.0417 ± 0.0003 µM in assay [1], 0.107 ± 0.009 µM in [2] and 22.7 ± 1.2 µM in assay [3]. For the same compound, in [3], the “ABTS•+-Scavenging Activity TEAC” value is on record as 0.85 ± 0.03. Also, the inhibition at 100 µM in assay [5] worked out at 49.4 ± 4.3%. For the same compound, the “CES % inhibition at 20 μM” value in [6] came out at 26.3 ± 1.7%. Also, in assay [7], the “Ferric-Reducing Antioxidant Power TE” value is 0.71 ± 0.03. The “Propidium Displacement” value in [8] is given as 15.1 ± 0.9%.
As to `Cc1cc(C(C)(C)C)c(O)c(C(C)(C)C)c1` [BHT, butylated hydroxytoluene, reference compound], the inhibition at 20 µM in [1] (read-out: BChE % inhibition at 20 μM) is 18.9 ± 1.7%; in assay [2] (read-out: AChE % inhibition at 20 μM), 6 ± 1.5%. Moreover, the half-maximal inhibitory concentration (IC50) in assay [9] (setting [10]) came to 6.9 ± 0.3 µM; in assay [9] (read-out: Inhibition of spontaneous lipid peroxidation in mice brain homogenate (TBARS Assay) IC50), 7 µM; in assay [3], 22.4 ± 1.4 µM; in assay [4], 70.4 ± 4.1 µM. In assay [3], the “ABTS•+-Scavenging Activity TEAC” value turned out to be 0.98 ± 0.03. Also, the “Inhibition of Aβ42 Self-Aggregation” value in assay [5] was “not detectable”. Moreover, in assay [6], the “CES % inhibition at 20 μM” value is listed as 5.6 ± 0.2%. For the same compound, the “Ferric-Reducing Antioxidant Power TE” value in assay [7] is reported as 0.96 ± 0.02.
On to `CC(C)(C)c1cc(C=NCCCCCCCCNc2c3c(nc4ccccc24)CCCC3)cc(C(C)(C)C)c1O` [14d, 2,6-Di-tert-butyl-4-{[8-(1,2,3,4-tetrahydro-acridin-9-ylamino)-octylimino]-methyl}-phenol], for which the IC50 came out at 0.00939 ± 0.00042 µM in [1]; 0.0171 ± 0.0016 µM in [2]; 20.4 ± 2.3 µM in [9] (setting [10]); 18.2 ± 0.7 µM in assay [3]; 1.9 ± 0.1 µM in assay [4]. In addition, the “AChE potency relative to compound 14a (times more potent)” value in assay [2] (vs 14a) worked out at 350 times. For the same compound, the “AChE activity relative to tacrine (times more active)” value in assay [2] is ~ 40 times. In assay [3], the “ABTS•+-Scavenging Activity TEAC” value is on record as 1.06 ± 0.03. In assay [5], the inhibition at 100 µM stood at 70.4 ± 5.6%. The “CES % inhibition at 20 μM” value in assay [6] is 28.8 ± 2.0%. Further, the “Ferric-Reducing Antioxidant Power TE” value in assay [7] was 0.70 ± 0.03. Besides, in assay [8], the “Propidium Displacement” value worked out at 14.8 ± 1.0%.
On to `CC(C)(C)c1cc(CNCCCCCCNc2c3c(nc4ccccc24)CCCC3)cc(C(C)(C)C)c1O` [17c, 2,6-Di-tert-butyl-4-{[6-(1,2,3,4-tetrahydro-acridin-9-ylamino)-hexylamino]-methyl}-phenol], for which the 50% inhibitory concentration (IC50) in assay [1] turned out to be 0.0361 ± 0.023 µM; in [2], 0.0702 ± 0.0011 µM; in assay [3], 15.7 ± 0.6 µM. For the same compound, in assay [3], the “ABTS•+-Scavenging Activity TEAC” value is listed as 1.32 ± 0.08. Also, the “time to reach the activity level of Trolox in ABTS radical scavenging” value in [3] is on record as “less than 1 min”. Besides, the inhibition at 100 µM in assay [5] was determined as 64.1 ± 5.7%. Besides, in assay [6], the “CES % inhibition at 20 μM” value turned out to be 18.5 ± 1.6%. Further, in [7], the “Ferric-Reducing Antioxidant Power TE” value was found to be 0.44 ± 0.02. Besides, the “Propidium Displacement” value in [8] is 16.1 ± 1.1%.
